Source: a melting point compilation (Tetko et al.; mined from patent text by program, amines drawn as free bases though some values may be those of a salt)

Row | melting point [°C] | SMILES
1 | 130 | Cn1nc(C(F)(F)F)cc1Oc1cc(Oc2cc(C(F)(F)F)nn2C)nc(Oc2cc(C(F)(F)F)nn2C)c1
2 | 208 | CCN(Cc1ccc(OC(C)(C)C(=O)O)c(C)c1)c1cc(-c2ccc(Cl)cc2)nn1C
3 | 174 to 176 | CCN1c2ncc(CC(O)c3ccncc3)cc2C(=O)N(C)c2ccc(F)nc21 (stereo unspecified)
4 | 104 to 106 | CCOC(=O)c1cccn1Cc1ccc(Cl)cc1[N+](=O)[O-]
5 | 145 to 146 | Cc1oc(-c2ccc3ccccc3c2)nc1COc1ccc(COc2ncccc2C#N)cc1
6 | 164 to 165 | O=C(O)CCn1c(=S)sc2ccccc21
7 | 143 | CCc1cc2c(s1)S(=O)(=O)NC2=O
8 | 52 to 53 | COc1cc(C(=O)C#CC(=O)OCC=C(C)C)cc(OC)c1OC
9 | 157 to 158 | CCOc1ccc2ccccc2c1C(=O)N[C@H](Cc1ccc(C(F)(F)F)cc1)[C@H](O)c1ccc(F)cc1 (racemic)
10 | 173 to 174 | O=C(Cc1ccccc1)N[C@H](Cc1ccc(C(F)(F)F)cc1)[C@@H](O)c1ccc(F)cc1 (racemic)
11 | 137 | CC#CC(O)(Cn1cncn1)c1ccc(Oc2ccc(Cl)cc2)cc1Cl (stereo unspecified)
12 | 273 to 276 | O=C1NC(=O)c2c1c(-c1c(Cl)cccc1Cl)cc1c2c2cc(O)ccc2n1CCCBr
13 | 210 to 214 | COc1cncnc1N1CCN(CCCc2c[nH]c3ccc(CNS(C)(=O)=O)cc23)CC1C (stereo unspecified)
14 | 102 to 103 | CCOC(=O)c1c(CN(CC)CC)nc2cc(OC)c(OC)cc2c1-c1ccc(F)cc1
15 | 97 to 98 | CC(=Cc1ccc(S)cc1)c1ccc2c(c1)C(C)(C)CCC2(C)C
16 | 175 to 178 | CCc1[nH]n(C2CCCC2)c2nc(-c3ccc(OCCCN(C)C)cc3)nc(=O)c1-2
17 | 175 to 178 | CC(C)CCC(=O)NC1(C(=O)NC2N=C(C(C)(C)C)c3ccccc3N(C)C2=O)CCCC1 (stereo unspecified)
18 | 108 to 109 | Nc1ncnc2c1ncn2C1OC(CS)C(O)C1O (stereo unspecified)
19 | 265 | CS(=O)C1C=Nc2cc(F)ccc2C1=O (stereo unspecified)
20 | 109 to 111 | COC(=O)C(=O)c1ccc(OC/C=C/c2c(C(C)C)nc3ccccc3c2-c2ccc(F)cc2)cc1
21 | 171 to 172 | Cc1cc(Br)cnc1NCCCNC1=NS(=O)N=C1NCc1ccncn1 (stereo unspecified)
22 | 273 to 275 | CNC(=O)c1ccc(-c2cnc3[nH]c(=O)n(CC4CCCCC4)c3n2)cc1
23 | 239 to 241 | CC(NNC=NN)C(=O)O (stereo unspecified)

Row | melting point [°C] | SMILES
24 | 201 to 207 | CCOc1cc(N)c(Cl)cc1C(=O)NCC1CN(CC2CCN(C(N)=O)CC2)CCO1 (stereo unspecified)
25 | 165 to 166 | O=C(O)CCCNC(=O)c1ccccc1SSc1ccccc1C(=O)NCCCC(=O)O
26 | 162 to 164 | CC(C)(C)c1cc(I)c2c(c1)CNC1(O2)C2CC3CC(C2)CC1C3 (stereo unspecified)
27 | 105 to 110 | CCN1C(=O)Cc2cccc(OC(=O)CCl)c21
28 | 101 to 102 | COc1ncc(C(=O)N(C)Cc2cc(C(F)(F)F)cc(C(F)(F)F)c2)c(-c2ccccc2)n1
29 | 99 to 101 | COC(=O)CCC(=O)c1ccc(-c2cccc(F)c2)cc1
30 | 118 | Cc1ccc(S(=O)(=O)ON=C2C3=C(C=C4OCCC42)CCCO3)cc1 (stereo unspecified)
31 | 168 | O=C(O)Cc1c(Sc2ccccc2)c2cc(F)ccc2n1Cc1ccc(Cl)cc1
32 | 140 | CCCc1c(OCCCSc2ccc(C(=O)CCC(=O)O)c(O)c2)ccc(C(C)=O)c1O
33 | 315 to 318 | Oc1ccc(-c2c[nH]c(-c3cccnc3)n2)cc1
34 | 219 to 220 | O=C(Nc1ccc(-c2nc(-c3ccco3)no2)c(Cl)c1)OCC(Cl)(Cl)Cl
35 | 142 to 143 | COc1cccc(NC(=O)c2ccccc2C)c1
36 | 102 to 103 | O=C1NC(=O)c2cc(CCCCOc3ccccc3)ccc21
37 | 263 to 265 | CN1COc2cc3c4c(cccc4c21)C(=O)N(O)C3=O
38 | 220 to 221 | CC[C@H](C)[C@H](NC(=O)OCc1ccccn1)C(=O)NC(Cc1ccccc1)C(O)C(O)C(Cc1ccccc1)NC(=O)[C@@H](NC(=O)OCc1ccccn1)[C@@H](C)CC (stereo partly specified)
39 | 257 to 258 | COc1ccc(Cn2c3ccc(Cl)cc3c3c(C(=O)Nc4c(Cl)cncc4Cl)ccc(OC)c32)cc1
40 | 85 to 86 | CS(=O)(=O)Oc1ccc(CCOc2ccc(-c3ncccc3C(=O)O)cc2C#N)cc1
41 | 132 to 134 | CSC[C@H](C)NC(=O)c1c(I)cccc1C(=O)O
42 | 101 | CC(c1ccc(OCCC2OCCCO2)cc1)(c1ccc(OCCC2OCCCO2)cc1)c1ccc(OCCC2OCCCO2)cc1
43 | 94 to 96 | CC(C)CC1(SCCCN=[N+]=[N-])c2c([nH]c(=O)n(C)c2=O)SC1Cc1cccc2ccccc12 (stereo unspecified)
44 | 172 to 174 | O=C(O)COc1cccc2c1Cc1sc(SCC=Cc3ccccc3)nc1-2
45 | 160 to 162 | N#Cc1ccc(N(CCOc2ccc(OCc3ccccc3)cc2)n2cnnc2)cc1
46 | 106 to 108 | COc1cc2c(c(C)c1OC)CC(C)CC2=O (stereo unspecified)

Row | melting point [°C] | SMILES
47 | 212 | Cc1c(C(=O)c2ccccc2)ccc(O)c1CC(=O)O
48 | 184 | N#Cc1cnn2c(C(F)(F)F)cc(-c3ccc(C(F)(F)F)c(F)c3)nc12
49 | 230 to 231 | CC(=O)Nc1ccc(C=CC(=O)C2C(=O)OC(=O)C(C(C)=O)=C2O)cc1 (stereo unspecified)
50 | 122 | CN1CCN(S(=O)(=O)c2ccc(Br)s2)CC1
51 | 88 to 89 | COc1c(C)c(C)c2c(c1C)C(c1ccc(CCCCCCC(=O)O)cc1)C(C)(C)O2 (stereo unspecified)
52 | 181 to 182 | N#Cc1cnc2sc(I)cc2c1Cl
53 | 85 | CC(C)OC1COc2ccc(OCc3ccc4ccccc4n3)cc2C1=O (stereo unspecified)
54 | 145 to 147 | O=C(Nc1cccc2ncccc12)C(Cl)(Cl)Cl
55 | 201 to 202 | Cc1cccc(C)c1CNc1cc(C(=O)N2CC2)cc2c1nc(C)n2C
56 | 212 to 215 | NNC(=O)NCCS(=O)(=O)O
57 | 158 to 159 | Cc1c(NC(=O)c2ccc(-c3cccc(F)c3)cc2)ccc2cc(CN3CCCC3)cnc12
58 | 128 | NC1(C2CCCC2)NC=Nc2[nH]cc(-c3cccc(Oc4ccccc4)c3)c21 (stereo unspecified)
59 | 248 to 250 | CCCCCCCCCC(=O)Nc1cc(C(=O)O)c2cc[nH]c2c1
60 | 43 to 45 | [N-]=[N+]=NCc1cccc(C(=O)c2ccc(Cl)cc2)c1
61 | 159 | COC(=C1C2CC3CC(C2)CC1C3)c1cc(OC)cc(OC(=O)C(C)(C)C)c1
62 | 109 to 112 | COC(=O)c1cccc(C=C2COc3ccc(OCc4ccccc4)cc3C2=O)c1
63 | 210 | CC(C)(C)c1cc(C=Cc2n[nH]c(=S)o2)cc(C(C)(C)C)c1O
64 | 185 to 186 | CCOC(=O)c1cc(NCc2ccccc2)c(N2CCOCC2)c(S(N)(=O)=O)c1
65 | 133 to 134 | CCOc1cc2c(cc1OCC)CCCC(C(=O)N1CCN(Cc3cc(OC)c(OC)c(OC)c3)CC1)=C2
66 | 174 | CCCS(=O)(=O)c1cccc(-c2nc(=O)c3ccccc3s2)n1
67 | 119 to 120 | Cc1ccc(C2CCN(C(=O)CCC(=O)c3ccc4c(c3)CNCC4)CC2)cc1
68 | 371 to 373 | COc1ccc(-n2nc(O)c3c(=O)c4ccc(Cl)cc4[nH]c3c2=O)cc1
69 | 162 | O=S(CCCCOc1ccc(C2=C(c3ccccc3)CCCc3cc(O)ccc32)cc1)Cc1ccccn1 (stereo unspecified)

Row | melting point [°C] | SMILES
70 | 134 | Cc1nn(-c2c(Cl)cc(C(F)(F)F)cc2Cl)c(N)c1SC#N
71 | 104 to 105 | Cc1c(F)c(F)cc(F)c1C(=O)O
72 | 210 to 212 | Nc1nc(-c2ccccc2OCC(F)(F)F)[nH]c(=O)c1N=O
73 | 206 to 207 | CC1CN(c2c(F)cc3c(=O)c(C(=O)O)cn4c3c2OCC4C)CC1NC(=O)OC(C)(C)C (stereo unspecified)
74 | 110 to 112 | COc1ccc(CN[C@@H]2CCCC[C@H]2NCc2ccc(OC)cc2)cc1 (relative stereo)
75 | 194 to 197 | CC(C)(C)OC(=O)CN1C(=O)C(N2C(=O)c3ccccc3C2=O)CCc2ccccc21 (stereo unspecified)
76 | 228 | C=CCc1cc(C)cc(C(Nc2ccc(C(=N)N)cc2)C(=O)O)c1OCCO (racemic)
77 | 91 to 92 | COC(=O)C(CCO)NS(=O)(=O)c1ccc(Cl)cc1 (racemic)
78 | 194 to 195 | CN1CCN(c2cccc3c2C[C@H](NC(=O)c2ccc(C(=O)c4ccccc4)cc2)CC3)CC1
79 | 168 to 170 | COc1ccc(-c2cc(Nc3c(C)cc(C)cc3C)nc(C)n2)cc1OC
80 | 98.3 | O=[PH](c1ccc2ccccc2c1)c1ccc2ccccc2c1
81 | 250 to 255 | Cn1c(=O)n(C)c2cc3c(N4CCN(C(=O)Nc5ccc(Oc6ccccc6)cc5)CC4)ncnc3cc21
82 | 180 to 181 | CC1(CN2CCN(Cc3ccccc3)C2=O)Cn2cc([N+](=O)[O-])nc2O1 (stereo unspecified)
83 | 71 to 73 | O=S(=O)(F)C=CNc1ccc(C(F)(F)F)cc1
84 | 114 to 116 | Cc1cc(SCN2C(=O)c3ccccc3C2=O)cc(C(C)(C)C)c1O
85 | 112 | COCCn1nc(-c2ccc(C(C)(C)C)cc2)cc1C(=O)NCc1ccc(OC(C)(C)C(=O)O)c(C)c1
86 | 92 to 93.5 | COCCOc1ncc(Cl)c(N)c1Cl
87 | 168 to 169 | COc1ccc(C(=O)Nc2cc(NC(=O)c3cccc(N(C)S(C)(=O)=O)c3)ccc2C)cc1OC
88 | 176 to 178 | CC(=NNC(=N)N)c1cccc(OCc2ccc3ccccc3c2)c1
89 | 108 to 109 | Cc1oc(-c2ccccc2)nc1COc1cccc(CON=C(CCC(=O)O)c2ccccc2)c1

Row | SMILES | melting point [°C]
90 | CSC(=N[N+](=O)[O-])N(Cc1cnc(Cl)s1)C(C)=O | 77 to 78
91 | CN(C)CCc1nc2cccnc2[nH]1 | 109 to 112
92 | CCc1c(C)[nH]c2c1C(=S)C1CNCCC1C2 (stereo unspecified) | 190 to 194
93 | CCOC(=O)c1nn(Cc2cn(C(c3ccccc3)(c3ccccc3)c3ccccc3)cn2)c2cc(OC)c(OC)cc12 | 184 to 186
94 | O=[N+]([O-])c1cc(C(O)CCN2CC=C(c3ccc(Cl)cc3)CC2)ccc1F (stereo unspecified) | 154 to 156
95 | Cc1cc(C2=NOC(c3cc(Cl)cc(Cl)c3)(C(F)(F)F)C2)ccc1C(=O)NC1CCCO1 (stereo unspecified) | 144 to 147
96 | CC(C)NCCc1ccc(O)cc1 | 102 to 104
